Source: PubChem BioAssay AID1963844 (Molecular Pharmacology Branch, DTP, NCI, 2024)

System: 422866-222-R5-J1-PDC complex spheroid viability
Assay: Anticancer human tumor 422866-222-R5-J1-PDC patient-derived pancreatic adenocarcinoma cell line growth inhibition [POLQ]
Details: for IC50: curve of first compound; for viability, T/C: stronger effect = lower value
Protocol: Multicellular complex tumor spheroid response to Polymerase (POL) inhibitors (novobiocin, ART-558, RP6685) in combination with a variety of drugs and investigational agents in selected tumor cell lines
The POL inhibitors (novobiocin, ART-558, and RP6685) were evaluated both individually and in combination with standard of care and investigational anticancer small molecules within a complex spheroid model of solid tumors. . Complex spheroids include a stromal component modeled by human endothelial cells (HUVEC) and fibroblasts modeled by human mesenchymal stem cells (MSCs). The concentration ranges selected for each drug and investigational agent were based upon clinically achievable concentrations if the clinical Cmax of the agent was known.
Compounds. The drugs and investigational agents: novobiocin (NSC847541), ART-558 (NSC835418), RP-6685 (NSC848927), peposertib (NSC802822), ceralasertib (NSC780249), elimusertib (NSC800525), camonsertib (NSC841442), AZD-1390 (NSC803789), olaparib (NSC753686), talazoparib (NSC767125), rucaparib (NSC756644), sotorasib (NSC818433), MRTX-1133 (NSC836407), SN-38 (NSC673596), topotecan (NSC609699), epotoside (NSC141540), doxorubicin (NSC123127), gemcitabine (NSC613327), 5-fluorouracil (NSC19893), paclitaxel (NSC125973), vemurafenib (NSC761431), MSA-2 (NSC828583), SN-011 (NSC837082), adavosertib (NSC754352), prexasertib (NSC758257), carboplatin (NSC241240) and oxaliplatin (NSC266046), were obtained from the National Cancer Institute (NCI) Developmental Therapeutics Program Chemical Repository (21). The FDA-approved anticancer drug set is available from the Developmental Therapeutics Program at https://dtp.cancer.gov/organization/dscb/obtaining/. […] The stock solutions were prepared in dimethyl sulfoxide (DMSO, Sigma-Aldrich, St. Louis, MO, cat. D2650), except for the platinum compounds which were prepared in saline (Quality Biological, Gaithersburg, MD, cat. 114-055-101), at 800-fold the tested concentration and stored at -70 degrees C prior to their use. All drugs and investigational agents were tested over a range starting from a high concentration at or near the clinical Cmax and decreasing in half-log increments. If the clinical Cmax for an agent had not been determined, the highest concentration tested was 10 microM, except for SN-38, which was tested at a high concentration of 1 microM.
Cell Culture. All cells were maintained in an incubator at 37 degrees C and 5% CO2 with 95% humidity. The PDC lines were cultured according to standard operating procedures established by the NCI PDMR (https://pdmr.cancer.gov). Table 3 of the manuscript, lists the cell lines along with the number of the three cell types plated to form the mct-spheroids and media for tumor cell growth. After thawing, all PDC lines, except 997537-175-T-J1-PDC and 415267-285-R-J2-PDC, were cultured in Matrigel-coated flasks prepared with a working solution of 1X Ham's F-12 nutrient mix, without supplementation (Thermo Fisher Scientific, cat. 11765054), 100 U/mL penicillin-streptomycin (Thermo Fisher Scientific, cat. 15140122), and 2.5% Matrigel (Corning Inc., Corning, NY, cat. 354248) for the first three passages. The two PDC lines 997537-175-T-J1-PDC and 415267-285-R-J2-PDC were cultured on uncoated flasks. The 857933-349-R-J2-PDC line was cultured in 6C/Colon 1B media containing advanced DMEM/F-12 (Thermo Fisher Scientific, cat. 12634028), 10 mM HEPES (Thermo Fisher Scientific, cat. 15630080), 1X GlutaMAX supplement (Thermo Fisher Scientific, cat. 35050061), 0.1 mg/mL primocin (InvivoGen, San Diego, CA, cat. ant-pm-2), 10% defined fetal bovine serum, heat inactivated (HyClone Laboratories Inc., Logan, UT, cat. SH30070.03HI), 50% L-WRN conditioned media (ATCC, cat. CRL-3276), 1.25 mM N-Acetyl-L-cysteine (Sigma-Aldrich, cat. A9165), 10 mM nicotinamide (Sigma-Aldrich, cat. N0636), 1X B-27 supplement (Thermo Fisher Scientific, cat. 17504044), 1X N-2 supplement (Thermo Fisher Scientific, cat. […]

[1] = second compound 0.0316 µM, first compound 0.0316 µM
[2] = second compound 0.0316 µM, first compound 0.1 µM
[3] = second compound 0.0316 µM, first compound 0.316 µM
[4] = second compound 0.0316 µM, first compound 1 µM
[5] = second compound 0.1 µM, first compound 0.0316 µM
[6] = second compound 0.1 µM, first compound 0.1 µM
[7] = second compound 0.1 µM, first compound 0.316 µM
[8] = second compound 0.1 µM, first compound 1 µM
[9] = second compound 0.316 µM, first compound 0.0316 µM
[10] = second compound 0.316 µM, first compound 0.1 µM
[11] = second compound 0.316 µM, first compound 0.316 µM
[12] = second compound 0.316 µM, first compound 1 µM
[13] = second compound 1 µM, first compound 0.0316 µM
[14] = second compound 1 µM, first compound 0.1 µM
[15] = second compound 1 µM, first compound 0.316 µM
[16] = second compound 1 µM, first compound 1 µM
[17] = second compound 3.16 µM, first compound 0.0316 µM
[18] = second compound 3.16 µM, first compound 0.1 µM
[19] = second compound 3.16 µM, first compound 0.316 µM
[20] = second compound 3.16 µM, first compound 1 µM
[21] = second compound 10 µM, first compound 0.0316 µM
[22] = second compound 10 µM, first compound 0.1 µM
[23] = second compound 10 µM, first compound 0.316 µM
[24] = second compound 10 µM, first compound 1 µM
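Further: spheroids exposed to compounds for one week before readout.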
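Wherever viability, T/C is given: percent of DMSO vehicle wells luminescence so 100% = untreated viability.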

CCc1cc2c(N3CCc4c(cc(Cn5ccnc5)cc4-c4cn(C)nc4C(F)(F)F)C3=O)ccnc2c(OC)n1 + Cc1cccc(N(C)C(=O)C2C(O)CCN2c2nc(C)cc(C(F)(F)F)c2C#N)c1
IC50 (second compound 0.0316 µM): > 10000 nM | IC50 (second compound 0.1 µM): > 10000 nM | IC50 (second compound 0.316 µM): > 10000 nM | IC50 (second compound 1 µM): > 10000 nM | IC50 (second compound 3.16 µM): > 10000 nM | IC50 (second compound 10 µM): > 10000 nM | viability, T/C [1]: 96.1% | viability, T/C [2]: 99.6% | viability, T/C [3]: 93.3% | viability, T/C [4]: 88.2% | viability, T/C (second compound 0.0316 µM, first compound 3.16 µM): 87.6% | viability, T/C (second compound 0.0316 µM, first compound 10 µM): 91.8% | viability, T/C [5]: 88.4% | viability, T/C [6]: 87.9% | viability, T/C [7]: 83.5% | viability, T/C [8]: 112% | viability, T/C (second compound 0.1 µM, first compound 3.16 µM): 91.4% | viability, T/C (second compound 0.1 µM, first compound 10 µM): 99.2% | viability, T/C [9]: 90.7% | viability, T/C [10]: 84.7% | viability, T/C [11]: 91.7% | viability, T/C [12]: 96.3% | viability, T/C (second compound 0.316 µM, first compound 3.16 µM): 96.2% | viability, T/C (second compound 0.316 µM, first compound 10 µM): 112% | viability, T/C [13]: 73% | viability, T/C [14]: 80.2% | viability, T/C [15]: 86.1% | viability, T/C [16]: 98.2% | viability, T/C (second compound 1 µM, first compound 3.16 µM): 97.7% | viability, T/C (second compound 1 µM, first compound 10 µM): 114% | viability, T/C [17]: 87.4% | viability, T/C [18]: 87.6% | viability, T/C [19]: 89.5% | viability, T/C [20]: 85.4% | viability, T/C (second compound 3.16 µM, first compound 3.16 µM): 108% | viability, T/C (second compound 3.16 µM, first compound 10 µM): 115% | viability, T/C [21]: 100% | viability, T/C [22]: 94.2% | viability, T/C [23]: 90.7% | viability, T/C [24]: 93.5% | viability, T/C (second compound 10 µM, first compound 3.16 µM): 107% | viability, T/C (second compound 10 µM, first compound 10 µM): 105%

COc1cccc(OCCCN)c1-c1cc(Nc2cnc(C#N)cn2)n[nH]1 + Cc1cccc(N(C)C(=O)C2C(O)CCN2c2nc(C)cc(C(F)(F)F)c2C#N)c1
IC50 (second compound 0.0316 µM): 5.54 nM | IC50 (second compound 0.1 µM): 6.74 nM | IC50 (second compound 0.316 µM): 6.63 nM | IC50 (second compound 1 µM): 6.92 nM | IC50 (second compound 3.16 µM): 5.11 nM | IC50 (second compound 10 µM): < 3.16 nM | viability, T/C (second compound 0.0316 µM, first compound 0.00316 µM): 65.4% | viability, T/C (second compound 0.0316 µM, first compound 0.01 µM): 30.4% | viability, T/C [1]: 30.1% | viability, T/C [2]: 26.9% | viability, T/C [3]: 36.6% | viability, T/C [4]: 43.4% | viability, T/C (second compound 0.1 µM, first compound 0.00316 µM): 72.7% | viability, T/C (second compound 0.1 µM, first compound 0.01 µM): 37.7% | viability, T/C [5]: 31.4% | viability, T/C [6]: 27.3% | viability, T/C [7]: 45.7% | viability, T/C [8]: 45.6% | viability, T/C (second compound 0.316 µM, first compound 0.00316 µM): 74.4% | viability, T/C (second compound 0.316 µM, first compound 0.01 µM): 32.5% | viability, T/C [9]: 35% | viability, T/C [10]: 30.1% | viability, T/C [11]: 51.8% | viability, T/C [12]: 32.2% | viability, T/C (second compound 1 µM, first compound 0.00316 µM): 77.7% | viability, T/C (second compound 1 µM, first compound 0.01 µM): 37.8% | viability, T/C [13]: 28.8% | viability, T/C [14]: 32.5% | viability, T/C [15]: 25.9% | viability, T/C [16]: 43.8% | viability, T/C (second compound 3.16 µM, first compound 0.00316 µM): 58.3% | viability, T/C (second compound 3.16 µM, first compound 0.01 µM): 39.3% | viability, T/C [17]: 30.4% | viability, T/C [18]: 35.7% | viability, T/C [19]: 29.8% | viability, T/C [20]: 50.1% | viability, T/C (second compound 10 µM, first compound 0.00316 µM): 68.1% | viability, T/C (second compound 10 µM, first compound 0.01 µM): 30.3% | viability, T/C [21]: 36.4% | viability, T/C [22]: 30.5% | viability, T/C [23]: 35.9% | viability, T/C [24]: 54.9%
